# Test results published in ChEMBL document CHEMBL1201862, “PubChem BioAssay data set” (2004).
#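 Cells were grown in 96-well plates and exposed to each compound for 48 hours at five concentrations; endpoints were interpolated linearly between bracketing concentrations, or set to the highest concentration if not reached. GI50 = concentration required for 50% inhibition of growth.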 Active and inactive are the calls of the source. No stated cut-off is given here; in the data, active = GI50 up to about 1.1 µM and inactive = higher.
# Experiments:
# Experiment in all cases: inhibition of tumour cell growth, NCI panel, 48 h
# BT-549 = tested on: BT-549
# PC-3 = tested on: PC-3
# UO-31 = tested on: UO-31
# NCI-H460 = tested on: NCI-H460
# M14 = tested on: M14
# KM12 = tested on: KM12
# SK-OV-3 = tested on: SK-OV-3
# MOLT-4 = tested on: MOLT-4
# SF-295 = tested on: SF-295
# LOX IMVI = tested on: LOX IMVI
# UACC-62 = tested on: UACC-62
# SR = tested on: SR
# RPMI-8226 = tested on: RPMI-8226
# MDA-N = tested on: MDA-N
# HL-60 = tested on: HL-60
# NCI-H522 = tested on: NCI-H522
# RXF 393 = tested on: RXF 393
# OVCAR-3 = tested on: OVCAR-3
# HT-29 = tested on: HT-29
# SW-620 = tested on: SW-620
# OVCAR-8 = tested on: OVCAR-8
# UACC-257 = tested on: UACC-257
# OVCAR-4 = tested on: OVCAR-4
# HCT-116 = tested on: HCT-116
# A498 = tested on: A498
# SN12C = tested on: SN12C
# CAKI-1 = tested on: CAKI-1
# CCRF-CEM = tested on: CCRF-CEM
# COLO 205 = tested on: COLO 205
# A549 = tested on: A549
# MDA-MB-435 = tested on: MDA-MB-435
# T47D = tested on: T47D
# MCF7 = tested on: MCF7
# MDA-MB-231 = tested on: MDA-MB-231
# HOP-62 = tested on: HOP-62
# SF-539 = tested on: SF-539
# HCC 2998 = tested on: HCC 2998
# SF-268 = tested on: SF-268
# K562 = tested on: K562
# NCI-H226 = tested on: NCI-H226
# SNB-19 = tested on: SNB-19
# HOP-92 = tested on: HOP-92
# NCI-H23 = tested on: NCI-H23
# SNB-75 = tested on: SNB-75
# HCT-15 = tested on: HCT-15
# SK-MEL-5 = tested on: SK-MEL-5
# DU-145 = tested on: DU-145
# U-251 = tested on: U-251
# IGROV-1 = tested on: IGROV-1
# NCI/ADR-RES = tested on: NCI/ADR-RES
# 786-0 = tested on: 786-0
# TK-10 = tested on: TK-10
# EKVX = tested on: EKVX
# Malme-3M = tested on: Malme-3M
# SK-MEL-2 = tested on: SK-MEL-2
# OVCAR-5 = tested on: OVCAR-5
# ACHN = tested on: ACHN
structure (smiles),measurement,setting,value
COC1/C=C/C=C(/C)Cc2cc(O)c(Cl)c(c2)N(C)C(=O)CC(OC(=O)C(C)C)C2(C)OC2C(C)C2CC1(O)NC(=O)O2 (stereo not drawn),GI50,BT-549,< 0.01 µM (active)
same,GI50,PC-3,< 0.01 µM (active)
same,GI50,UO-31,< 0.01 µM (active)
same,GI50,NCI-H460,< 0.01 µM (active)
same,GI50,M14,< 0.01 µM (active)
same,GI50,KM12,< 0.01 µM (active)
same,GI50,SK-OV-3,< 0.01 µM (active)
same,GI50,MOLT-4,< 0.01 µM (active)
same,GI50,SF-295,< 0.01 µM (active)
same,GI50,LOX IMVI,< 0.01 µM (active)
same,GI50,UACC-62,< 0.01 µM (active)
same,GI50,SR,< 0.01 µM (active)
same,GI50,RPMI-8226,< 0.01 µM (active)
same,GI50,MDA-N,< 0.01 µM (active)
same,GI50,HL-60,< 0.01 µM (active)
same,GI50,NCI-H522,< 0.01 µM (active)
same,GI50,RXF 393,< 0.01 µM (active)
same,GI50,OVCAR-3,< 0.01 µM (active)
same,GI50,HT-29,< 0.01 µM (active)
same,GI50,SW-620,< 0.01 µM (active)
same,GI50,OVCAR-8,< 0.01 µM (active)
same,GI50,UACC-257,4.89 µM (inactive)
same,GI50,OVCAR-4,< 0.01 µM (active)
same,GI50,HCT-116,< 0.01 µM (active)
same,GI50,A498,< 0.01 µM (active)
same,GI50,SN12C,< 0.01 µM (active)
same,GI50,CAKI-1,21.2 µM (inactive)
same,GI50,CCRF-CEM,0.394 µM (active)
same,GI50,COLO 205,< 0.01 µM (active)
same,GI50,A549,< 0.01 µM (active)
same,GI50,MDA-MB-435,< 0.01 µM (active)
same,GI50,T47D,> 100 µM (inactive)
same,GI50,MCF7,< 0.01 µM (active)
same,GI50,MDA-MB-231,< 0.01 µM (active)
same,GI50,HOP-62,0.0673 µM (active)
same,GI50,SF-539,< 0.01 µM (active)
same,GI50,HCC 2998,< 0.01 µM (active)
same,GI50,SF-268,< 0.01 µM (active)
same,GI50,K562,< 0.01 µM (active)
same,GI50,NCI-H226,> 100 µM (inactive)
same,GI50,SNB-19,< 0.01 µM (active)
same,GI50,HOP-92,64.9 µM (inactive)
same,GI50,NCI-H23,< 0.01 µM (active)
same,GI50,SNB-75,< 0.01 µM (active)
same,GI50,HCT-15,< 0.01 µM
same,GI50,SK-MEL-5,< 0.01 µM (active)
same,GI50,DU-145,< 0.01 µM (active)
same,GI50,U-251,< 0.01 µM (active)
same,GI50,IGROV-1,< 0.01 µM (active)
N[C@H]1CCc2c1nc1c(c2-c2ccccc2)CC[C@@H]1N,GI50,BT-549,12.4 µM (inactive)
same,GI50,NCI/ADR-RES,46.9 µM (inactive)
same,GI50,786-0,14.7 µM (inactive)
same,GI50,PC-3,15.3 µM (inactive)
same,GI50,TK-10,28.3 µM (inactive)
same,GI50,NCI-H460,25.6 µM (inactive)
same,GI50,M14,16.3 µM (inactive)
same,GI50,KM12,28.9 µM (inactive)
same,GI50,MOLT-4,8.73 µM (inactive)
same,GI50,SF-295,18.5 µM (inactive)
same,GI50,LOX IMVI,14 µM (inactive)
same,GI50,SR,31.5 µM (inactive)
same,GI50,RPMI-8226,34.4 µM (inactive)
same,GI50,EKVX,> 100 µM (inactive)
same,GI50,HL-60,15.7 µM (inactive)
same,GI50,NCI-H522,16.2 µM (inactive)
same,GI50,HT-29,11.9 µM (inactive)
same,GI50,SW-620,12.3 µM (inactive)
same,GI50,OVCAR-8,39.8 µM (inactive)
same,GI50,UACC-257,> 10 µM (inactive)
same,GI50,OVCAR-4,50.8 µM (inactive)
same,GI50,HCT-116,18.1 µM (inactive)
same,GI50,SN12C,44.1 µM (inactive)
same,GI50,CAKI-1,14.8 µM (inactive)
same,GI50,CCRF-CEM,17.6 µM (inactive)
same,GI50,COLO 205,20.6 µM (inactive)
same,GI50,A549,34 µM (inactive)
same,GI50,MDA-MB-435,15.8 µM (inactive)
same,GI50,Malme-3M,16.7 µM (inactive)
same,GI50,MCF7,21.8 µM (inactive)
same,GI50,SK-MEL-2,18.5 µM (inactive)
same,GI50,MDA-MB-231,18.3 µM (inactive)
same,GI50,HOP-62,31.7 µM (inactive)
same,GI50,SF-539,16.1 µM (inactive)
same,GI50,HCC 2998,21.4 µM (inactive)
same,GI50,OVCAR-5,18.3 µM (inactive)
same,GI50,SF-268,18.1 µM (inactive)
same,GI50,K562,12.3 µM (inactive)
same,GI50,NCI-H226,33.6 µM (inactive)
same,GI50,SNB-19,82.8 µM (inactive)
same,GI50,HOP-92,21.3 µM (inactive)
same,GI50,NCI-H23,25.2 µM (inactive)
same,GI50,SNB-75,11.9 µM (inactive)
same,GI50,HCT-15,34.4 µM
same,GI50,SK-MEL-5,15.9 µM (inactive)
same,GI50,DU-145,24.2 µM (inactive)
same,GI50,ACHN,40.1 µM (inactive)
same,GI50,U-251,20.5 µM (inactive)
same,GI50,IGROV-1,14.7 µM (inactive)
